Laboratory results reported in ChEMBL document CHEMBL1145873, “Acylsulfonamide-containing PTP1B inhibitors designed to mimic an enzyme-bound water of hydration” (Bioorg Med Chem Lett, 2003).
pIC50, pKi: −log10 of the molar value.

Biological target: T1, Tyrosine-protein phosphatase non-receptor type 1 (Homo sapiens, UniProt P18031)
T1 sequence (P18031 whole entry): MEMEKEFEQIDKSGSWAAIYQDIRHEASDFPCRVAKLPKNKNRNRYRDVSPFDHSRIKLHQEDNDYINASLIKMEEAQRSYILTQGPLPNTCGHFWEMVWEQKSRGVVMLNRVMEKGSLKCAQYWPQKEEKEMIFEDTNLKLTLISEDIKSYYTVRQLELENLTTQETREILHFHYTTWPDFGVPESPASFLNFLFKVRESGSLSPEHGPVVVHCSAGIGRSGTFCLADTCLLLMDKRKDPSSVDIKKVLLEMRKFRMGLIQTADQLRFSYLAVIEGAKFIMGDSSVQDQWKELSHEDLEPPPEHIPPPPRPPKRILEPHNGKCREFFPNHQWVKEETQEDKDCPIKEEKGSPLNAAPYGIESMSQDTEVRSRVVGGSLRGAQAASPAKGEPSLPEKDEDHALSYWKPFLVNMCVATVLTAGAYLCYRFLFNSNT
Assay: Binding affinity towards recombinant human Protein-tyrosine phosphatase 1B was determined

pKi | Compound
4.77 | CS(=O)(=O)NC(=O)c1ccc2cc(C(F)(F)P(=O)(O)O)ccc2c1

Biological target: T1, Tyrosine-protein phosphatase non-receptor type 1
Assay: Inhibitory concentration towards recombinant human Protein-tyrosine phosphatase 1B was determined

Compound | pIC50
C[C@@H]1CCC[C@H](C)N1NC(=O)c1ccc(Cl)c(S(=O)(=O)NC(=O)c2ccc3cc(C(F)(F)P(=O)(O)O)ccc3c2)c1 | 4.72
O=C(NS(=O)(=O)Cc1ccccc1)c1ccc2cc(C(F)(F)P(=O)(O)O)ccc2c1 | 4.62
CS(=O)(=O)NC(=O)c1ccc2cc(C(F)(F)P(=O)(O)O)ccc2c1 | 4.39
CCN1CCCC1CNC(=O)c1cc(S(=O)(=O)NC(=O)c2ccc3cc(C(F)(F)P(=O)(O)O)ccc3c2)ccc1OC (stereo not given) | 4.34
CCCCCCCCCCCCCCCCOc1ccc(S(=O)(=O)NC(=O)c2ccc3cc(C(F)(F)P(=O)(O)O)ccc3c2)cc1[N+](=O)[O-] | 6.46
CCCCCCCCCC(=O)Nc1ccc(S(=O)(=O)NC(=O)c2ccc3cc(C(F)(F)P(=O)(O)O)ccc3c2)cc1 | 4.74

Second part, the molecule after the results:

pIC50 | Compound
4.60 | O=C(NS(=O)(=O)c1cc(C2(O)NC(=O)c3ccccc32)ccc1Cl)c1ccc2cc(C(F)(F)P(=O)(O)O)ccc2c1 (stereo not given)
4.52 | O=C(NS(=O)(=O)c1ccccc1)c1ccc2cc(C(F)(F)P(=O)(O)O)ccc2c1
4.70 | CC1Cc2ccccc2N1NC(=O)c1ccc(Cl)c(S(=O)(=O)NC(=O)c2ccc3cc(C(F)(F)P(=O)(O)O)ccc3c2)c1 (stereo not given)
